Measurements from US20110009381A1, “SOLUBILIZED THIAZOLOPYRIDINES” (Sirtis Pharmaceuticals, Inc., priority 2007, published 2011).

Molecular target: T1, SIRT1 (Homo sapiens, UniProt Q96EB6)
T1 sequence (Q96EB6 1-747): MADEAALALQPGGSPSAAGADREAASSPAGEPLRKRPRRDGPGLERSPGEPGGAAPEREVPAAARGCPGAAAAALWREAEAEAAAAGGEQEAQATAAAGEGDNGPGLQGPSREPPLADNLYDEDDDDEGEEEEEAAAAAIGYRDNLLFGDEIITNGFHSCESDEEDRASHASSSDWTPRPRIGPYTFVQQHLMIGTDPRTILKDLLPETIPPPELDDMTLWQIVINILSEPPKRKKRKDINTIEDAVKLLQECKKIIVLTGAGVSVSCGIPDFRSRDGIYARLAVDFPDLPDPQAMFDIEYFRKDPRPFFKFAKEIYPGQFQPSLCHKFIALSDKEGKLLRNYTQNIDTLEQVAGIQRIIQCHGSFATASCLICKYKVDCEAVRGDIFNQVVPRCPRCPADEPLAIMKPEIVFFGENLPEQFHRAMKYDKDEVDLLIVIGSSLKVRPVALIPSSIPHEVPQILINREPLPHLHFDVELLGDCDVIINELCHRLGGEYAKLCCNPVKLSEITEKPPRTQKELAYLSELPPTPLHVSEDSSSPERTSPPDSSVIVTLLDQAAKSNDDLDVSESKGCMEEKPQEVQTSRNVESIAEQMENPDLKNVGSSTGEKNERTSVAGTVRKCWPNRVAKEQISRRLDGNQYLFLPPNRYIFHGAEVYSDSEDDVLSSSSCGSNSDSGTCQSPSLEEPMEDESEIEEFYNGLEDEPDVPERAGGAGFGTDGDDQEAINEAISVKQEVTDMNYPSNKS
Assay: Mass spectrometry based assay to identify modulators of SIRT1 activity (deacetylation of p53-based acetylated peptide substrate)
Format: biochemical
Conditions: 10 nM SIRT1, 0.5 μM peptide substrate, 120 μM βNAD+, 25 minutes at 25° C.; for EC1.5: SIRT1 activation
Excerpt: A mass spectrometry based assay was used to identify modulators of SIRT1 activity. The mass spectrometry based assay utilizes a peptide having 20 amino acid residues as follows: Ac-EE-K(biotin)-GQSTSSHSK(Ac)NleSTEG-K(5TMR)-EE-NH2 (SEQ ID NO: 1) wherein K(Ac) is an acetylated lysine residue and Nle is a norleucine. The peptide is labeled with the fluorophore 5TMR (excitation 540 nm/emission 580 nm) at the C-terminus. The sequence of the peptide substrate is based on p53 with several modifications. In addition, the methionine residue naturally present in the sequence was replaced with the norleucine because the methionine may be susceptible to oxidation during synthesis and purification.
The mass spectrometry assay is conducted as follows: 0.5 μM peptide substrate and 120 μM βNAD^+ is incubated with 10 nM SIRT1 for 25 minutes at 25° C. in a reaction buffer (50 mM Tris-acetate pH 8, 137 mM NaCl, 2.7 mM KCl, 1 mM MgCl2, 5 mM DTT, 0.05% BSA). Test compounds may be added to the reaction as described above. The SirT1 gene is cloned into a T7-promoter containing vector and transformed into BL21(DE3). After the 25 minute incubation with SIRT1, 10 μL of 10% formic acid is added to stop the reaction. Reactions are sealed and frozen for later mass spec analysis. Determination of the mass of the substrate peptide allows for precise determination of the degree of acetylation (i.e. starting material) as compared to deacetylated peptide (product).
A control for inhibition of sirtuin activity is conducted by adding 1 μL of 500 mM nicotinamide as a negative control at the start of the reaction (e.g., permits determination of maximum sirtuin inhibition). A control for activation of sirtuin activity is conducted using 10 nM of sirtuin protein, with 1 μL of DMSO in place of compound, to determine the amount of deacetylation of the substrate at a given timepoint within the linear range of the assay. This timepoint is the same as that used for test compounds and, within the linear range, the endpoint represents a change in velocity.
For the above assay, SIRT1 protein was expressed and purified as follows. The SirT1 gene was cloned into a T7-promoter containing vector and transformed into BL21(DE3). The protein was expressed by induction with 1 mM IPTG as an N-terminal His-tag fusion protein at 18° C. overnight and harvested at 30,000×g. Cells were lysed with lysozyme in lysis buffer (50 mM Tris-HCl, 2 mM Tris[2-carboxyethyl]phosphine (TCEP), 10 μM ZnCl2, 200 mM NaCl) and further treated with sonication for 10 min for complete lysis. The protein was purified over a Ni-NTA column (Amersham) and fractions containing pure protein were pooled, concentrated and run over a sizing column (Sephadex S200 26/60 global). The peak containing soluble protein was collected and run on an Ion-exchange column (MonoQ). Gradient elution (200 mM-500 mM NaCl) yielded pure protein. This protein was concentrated and dialyzed against dialysis buffer (20 mM Tris-HCl, 2 mM TCEP) overnight. The protein was aliquoted and frozen at −80° C. until further use.
Sirtuin modulating compounds that activated SIRT1 were identified using the assay described above and are shown below in Table 1. The EC1-5 values for the activating compounds are represented by A′ (EC1.5<250 nM), A (EC1.5≧250 nM and ≦1 uM), B (EC1.5>1 and ≦10 uM), or C (EC1.5>10 uM). The percent maximum fold activation is represented by A (Fold activation≧300%), B (Fold Activation≧150% and <300%), or C (Fold Activation<150%).

In the case of `NCCCNc1cc(C(=O)Nc2ccccc2-c2nc3cccnc3s2)nc(-c2ccccc2)n1` [Compound 84], the “FOLD ACT. (percent maximum fold activation)” value is reported as “A (Fold activation≧300%)” and the EC1.5 is reported as “A′ (EC1.5<250 nM)”.

For `CN(C)CCOc1cc(C(=O)Nc2ccccc2-c2nc3cccnc3s2)nc(-c2ccccc2)n1` [Compound 94], the “FOLD ACT. (percent maximum fold activation)” value was “A (Fold activation≧300%)” and the EC1.5 was “A (EC1.5≧250 nM and ≦1 uM)”.

`O=C(Nc1ccccc1-c1nc2cccnc2s1)c1cc(O)cc(-c2ccccc2)n1` [Compound 34] was tested, and the “FOLD ACT. (percent maximum fold activation)” value was “A (Fold activation≧300%)” and the EC1.5 was “A (EC1.5≧250 nM and ≦1 uM)”.

For `O=C(Nc1ccccc1-c1nc2ccncc2s1)c1cc(N2CCNCC2)nc(-c2ccccc2)n1` [Compound 23], the “FOLD ACT. (percent maximum fold activation)” value was “A (Fold activation≧300%)” and the EC1.5 was “A′ (EC1.5<250 nM)”.

For `O=C(Nc1ccccc1-c1nc2cccnc2s1)c1cc(OC[C@H](O)CO)cc(-c2ccccc2)n1` [Compound 126], the “FOLD ACT. (percent maximum fold activation)” value was “A (Fold activation≧300%)” and the EC1.5 was “A′ (EC1.5<250 nM)”.

With `O=C(Nc1ccccc1-c1nc2cccnc2s1)c1cc(NC2CCNC2)nc(-c2ccccc2)n1` (centres unmarked) [Compound 104] the “FOLD ACT. (percent maximum fold activation)” value was “A (Fold activation≧300%)” and the EC1.5 was “A′ (EC1.5<250 nM)”.

In the case of `CC(C)CN1CCC(Nc2cc(C(=O)Nc3ccccc3-c3nc4cccnc4s3)nc(-c3ccccc3)n2)CC1` [Compound 140], the “FOLD ACT. (percent maximum fold activation)” value is reported as “A (Fold activation≧300%)” and the EC1.5 is reported as “A′ (EC1.5<250 nM)”.

`O=C(Nc1ccccc1-c1nc2cccnc2s1)c1cc(N2CCOCC2)cc(-c2ccccc2)n1` [Compound 129] was tested, and the “FOLD ACT. (percent maximum fold activation)” value was “A (Fold activation≧300%)” and the EC1.5 was “A′ (EC1.5<250 nM)”.

In the case of `NCCCCCNc1cc(C(=O)Nc2ccccc2-c2nc3cccnc3s2)nc(-c2ccccc2)n1` [Compound 86], the “FOLD ACT. (percent maximum fold activation)” value is reported as “A (Fold activation≧300%)” and the EC1.5 is reported as “A′ (EC1.5<250 nM)”.

For `COCCN(C)c1cc(C(=O)Nc2ccccc2-c2nc3ccncc3s2)nc(-c2ccccc2)n1` [Compound 29], the “FOLD ACT. (percent maximum fold activation)” value was “A (Fold activation≧300%)” and the EC1.5 was “A′ (EC1.5<250 nM)”.

For `COCCNc1cc(C(=O)Nc2ccccc2-c2nc3cccnc3s2)nc(-c2ccccc2)n1` [Compound 15], the “FOLD ACT. (percent maximum fold activation)” value was “A (Fold activation≧300%)” and the EC1.5 was “A (EC1.5≧250 nM and ≦1 uM)”.

For `Cl.O=C(Nc1ccccc1-c1nc2cccnc2s1)c1cc(NCCN2CCOCC2)nc(-c2ccccc2)n1` [Compound 61], the “FOLD ACT. (percent maximum fold activation)” value was “A (Fold activation≧300%)” and the EC1.5 was “A′ (EC1.5<250 nM)”.

With `NCCOc1cc(C(=O)Nc2ccccc2-c2nc3cccnc3s2)nc(-c2ccccc2)n1` [Compound 152] the “FOLD ACT. (percent maximum fold activation)” value was “A (Fold activation≧300%)” and the EC1.5 was “A′ (EC1.5<250 nM)”.

With `Cc1cccc(-c2nc(C(=O)Nc3ccccc3-c3nc4cccnc4s3)cc(N3CCNCC3)n2)c1` [Compound 139] the “FOLD ACT. (percent maximum fold activation)” value was “A (Fold activation≧300%)” and the EC1.5 was “A′ (EC1.5<250 nM)”.

For `O=C(Nc1ccccc1-c1nc2cccnc2s1)c1cc(NC2CCN(c3ccccn3)CC2)nc(-c2ccccc2)n1` [Compound 115], the “FOLD ACT. (percent maximum fold activation)” value was “C (Fold Activation<150%)” and the EC1.5 was “C (EC1.5>10 uM)”.

In the case of `CN(C)CCNc1cc(C(=O)Nc2ccccc2-c2nc3cccnc3s2)nc(-c2ccccc2)c1` [Compound 110], the “FOLD ACT. (percent maximum fold activation)” value is reported as “A (Fold activation≧300%)” and the EC1.5 is reported as “A′ (EC1.5<250 nM)”.

In the case of `CNCCN(C)c1cc(C(=O)Nc2ccccc2-c2nc3cccnc3s2)nc(-c2ccccc2)n1` [Compound 147], the “FOLD ACT. (percent maximum fold activation)” value is reported as “A (Fold activation≧300%)” and the EC1.5 is reported as “A′ (EC1.5<250 nM)”.

For `O=C(Nc1ccccc1-c1nc2cccnc2s1)c1cc(N2CCCCC2)nc(-c2ccccc2)n1` [Compound 21], the “FOLD ACT. (percent maximum fold activation)” value was “C (Fold Activation<150%)” and the EC1.5 was “C (EC1.5>10 uM)”.

With `CCN(CCN(C)C)c1cc(C(=O)Nc2ccccc2-c2nc3cccnc3s2)nc(-c2ccccc2)n1` [Compound 146] the “FOLD ACT. (percent maximum fold activation)” value was “A (Fold activation≧300%)” and the EC1.5 was “A′ (EC1.5<250 nM)”.

For `O=C(Nc1ccccc1-c1nc2cccnc2s1)c1cc(NC2CCCCC2)nc(-c2ccccc2)n1` [Compound 63], the “FOLD ACT. (percent maximum fold activation)” value was “C (Fold Activation<150%)” and the EC1.5 was “C (EC1.5>10 uM)”.

With `COC(=O)CNc1cc(C(=O)Nc2ccccc2-c2nc3cccnc3s2)nc(-c2ccccc2)n1` [Compound 17] the “FOLD ACT. (percent maximum fold activation)” value was “A (Fold activation≧300%)” and the EC1.5 was “A (EC1.5≧250 nM and ≦1 uM)”.

With `Cc1cccc(-c2nc(C(=O)Nc3ccccc3-c3nc4cccnc4s3)cc(N3CCOCC3)n2)c1` [Compound 148] the “FOLD ACT. (percent maximum fold activation)” value was “B (Fold Activation≧150% and <300%)” and the EC1.5 was “A (EC1.5≧250 nM and ≦1 uM)”.

In the case of `Cc1ccc(-c2nc(NCCN(C)C)cc(C(=O)Nc3ccccc3-c3nc4cccnc4s3)n2)cc1` [Compound 111], the “FOLD ACT. (percent maximum fold activation)” value is reported as “A (Fold activation≧300%)” and the EC1.5 is reported as “A′ (EC1.5<250 nM)”.

`Cl.O=C(Nc1ccccc1-c1nc2cccnc2s1)c1cc(NCCN2CCCC2)nc(-c2ccccc2)n1` [Compound 62] was tested, and the “FOLD ACT. (percent maximum fold activation)” value was “A (Fold activation≧300%)” and the EC1.5 was “A′ (EC1.5<250 nM)”.

`CN(C)CCCOc1cc(C(=O)Nc2ccccc2-c2nc3cccnc3s2)nc(-c2ccccc2)n1` [Compound 153] was tested, and the “FOLD ACT. (percent maximum fold activation)” value was “A (Fold activation≧300%)” and the EC1.5 was “A (EC1.5≧250 nM and ≦1 uM)”.

`O=C(Nc1ccccc1-c1nc2cccnc2s1)c1cc(NCC2CCCNC2)nc(-c2ccccc2)n1` (centres unmarked) [Compound 109] was tested, and the “FOLD ACT. (percent maximum fold activation)” value was “A (Fold activation≧300%)” and the EC1.5 was “A′ (EC1.5<250 nM)”.

`CC(C)NCCNc1cc(C(=O)Nc2ccccc2-c2nc3cccnc3s2)nc(-c2ccccc2)n1` [Compound 52] was tested, and the “FOLD ACT. (percent maximum fold activation)” value was “A (Fold activation≧300%)” and the EC1.5 was “A (EC1.5≧250 nM and ≦1 uM)”.

In the case of `O=C(Nc1ccccc1-c1nc2cccnc2s1)c1cc(NCCO)nc(-c2ccccc2)n1` [Compound 39], the “FOLD ACT. (percent maximum fold activation)” value is reported as “A (Fold activation≧300%)” and the EC1.5 is reported as “A′ (EC1.5<250 nM)”.

In the case of `CN(C)CCNc1cc(C(=O)Nc2ccccc2-c2nc3cccnc3s2)nc(-c2ccccc2)n1` [Compound 9], the “FOLD ACT. (percent maximum fold activation)” value is reported as “A (Fold activation≧300%)” and the EC1.5 is reported as “A′ (EC1.5<250 nM)”.

In the case of `CCN(CC)CCCOc1cc(C(=O)Nc2ccccc2-c2nc3cccnc3s2)nc(-c2ccccc2)n1` [Compound 93], the “FOLD ACT. (percent maximum fold activation)” value is reported as “A (Fold activation≧300%)” and the EC1.5 is reported as “A (EC1.5≧250 nM and ≦1 uM)”.

In the case of `CCOc1cc(C(=O)Nc2ccccc2-c2nc3cccnc3s2)nc(-c2ccccc2)n1` [Compound 18], the “FOLD ACT. (percent maximum fold activation)” value is reported as “C (Fold Activation<150%)” and the EC1.5 is reported as “C (EC1.5>10 uM)”.
